This passage reports Ki and EC50 results from ChEMBL document CHEMBL5725219, “Compounds and methods for skin repair” (2017).

Each structure is given as a SMILES string. A value given as a limit tells only on which side of the number the result lay.

T1 sequence (P35408 whole entry): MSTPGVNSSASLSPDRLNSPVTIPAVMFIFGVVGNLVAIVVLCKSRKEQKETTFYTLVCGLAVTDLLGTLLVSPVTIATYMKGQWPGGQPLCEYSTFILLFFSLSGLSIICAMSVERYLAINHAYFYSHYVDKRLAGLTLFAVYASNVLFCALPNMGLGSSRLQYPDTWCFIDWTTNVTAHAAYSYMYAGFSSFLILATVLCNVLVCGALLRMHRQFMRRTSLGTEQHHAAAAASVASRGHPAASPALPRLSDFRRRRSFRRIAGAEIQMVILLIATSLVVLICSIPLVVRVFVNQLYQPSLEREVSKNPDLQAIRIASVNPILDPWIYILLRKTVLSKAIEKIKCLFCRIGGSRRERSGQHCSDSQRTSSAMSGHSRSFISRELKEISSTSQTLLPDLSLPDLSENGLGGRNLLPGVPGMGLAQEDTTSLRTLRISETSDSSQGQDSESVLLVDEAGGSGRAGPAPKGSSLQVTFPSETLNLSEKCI

One test has as its target T1, Prostaglandin E2 receptor EP4 subtype (Homo sapiens, UniProt P35408). The experiment in a line: Radioligand Binding Assay: HEK-293 cells stably expressing the human or feline FP receptor, or EP1, EP2, or EP4 receptors were washed with TME buffer, scraped from the bottom of the flasks, and homogenized for 30 sec using a Brinkman PT 10/35 polytron. TME buffer was added to achieve a final 40 ml volume in the centrifuge tubes (the composition of TME is 100 mM TRIS base, 20 mM MgCl2, […]; 10N HCl is added to achieve a pH of 7.4).The cell homogenate was centrifuged at 19000 r.p.m. for 20 min at 4° C. using a Beckman Ti-60 rotor. The resultant pellet was resuspended in TME buffer to give a final 1 mg/ml protein concentration, as determined by Biorad assay. Radioligand binding competition assays vs. [3H-]17-phenyl PGF2a (5 nM) were performed in a 100 μl volume for 60 min. Binding reactions were started by adding plasma membrane fraction. The reaction was terminated by the addition of 4 ml ice-cold TRIS-HCl buffer and rapid filtration through glass fiber GF/B filters using a Brandel cell harvester. The filters were washed 3 times with ice-cold buffer and oven dried for one hour.[3H] PGE2 (specific activity 180 Ci mmol) was used as the radioligand for EP receptors. [3H] 17-phenyl PGF2a was employed for FP receptor binding studies. Binding studies employing EP1, EP2, EP4 and FP receptors were performed in duplicate in at least three separate experiments. A 200 μl assay volume was used. […].
In general, Ki refers to a measure of affinity in units of concentration, obtained from inhibition or displacement. In the case of `COc1cc(CO)cc(CN2CCc3cccc(CCc4ccc(C(=O)O)s4)c32)c1`, the inhibition constant (Ki) was 0.154 µM.

The next test has as its target T1, Prostaglandin E2 receptor EP4 subtype. Kind of test: (§1) FLIPR Assay: Cells were seeded at a density of 5×10^4 cells per well in Biocoat® Poly-D-lysine-coated black-wall, clear-bottom 96-well plates (Becton-Dickinson) and allowed to attach overnight in an incubator at 37° C. Cells were then washed two times with HBSS-HEPES buffer (Hanks Balanced Salt Solution without bicarbonate and phenol red, 20 mM HEPES, pH 7.4) using a Denley Cellwash plate washer (Labsystems). After 45 minutes of dye-loading in the dark, using the calcium-sensitive dye Fluo-4 AM at a final concentration of […], plates were washed four times with HBSS-HEPES buffer to remove excess dye leaving […] in each well. Plates were re-equilibrated to 37° C. for a few minutes.Cells were excited with an Argon laser at 488 nm, and emission was measured through a 510-570 nm bandwidth emission filter (FLIPR™, Molecular Devices, Sunnyvale, Calif.). Drug solution was added in a 50 μl volume to each well to give the desired final concentration. The peak increase in fluorescence intensity was recorded for each well. On each plate, four wells each served as negative (HBSS-HEPES buffer) and positive controls (standard agonists: BW245C (hDP); PGE2 (hEP1; hEP2/Gqs5; hEP3A/Gqi5; hEP4/Gqs5); PGF2a (hFP); carbacyclin (hIP); U-46619 (hTP), depending on receptor). The peak fluorescence change in each drug-containing well was then expressed relative to the controls.
The EC50 is the concentration at which the effect is half-maximal. In the case of `COc1cc(CN2CCc3cc(F)cc(CCc4ccc(C(=O)O)cc4)c32)cc(OC)c1`, the EC50 amounted to 0.002 µM and the Ki was 0.002 µM.
On to `COc1cccc(Cn2ccc3cccc(CCc4ccc(C(=O)O)cc4)c32)c1`, for which the EC50 was 1.62 µM and the Ki was 1.68 µM.
For the molecule `COc1cccc(CCN2CCc3cccc(CCc4ccc(C(=O)O)cc4)c32)c1`, the EC50 was 1.26 µM and the Ki is 0.373 µM.
In the case of `O=C(O)c1ccc(CCc2cccc3c2N(CCc2ccccc2)CC3)cc1`, the EC50 came to 1.58 µM and the Ki came to 1.09 µM.
With `COc1cc(OC)cc(C(=O)N2CCc3cccc(CCc4ccc(C(=O)O)cc4)c32)c1`, the Ki was 4.86 µM.
On to `O=C(O)c1ccc(CCc2cccc3c2N(Cc2cc(F)cc(F)c2)CC3)cc1`, for which the EC50 was determined as 0.205 µM and the Ki is 0.412 µM.
With `COc1cccc(S(=O)(=O)N2CCc3cccc(CCc4ccc(C(=O)O)cc4)c32)c1`, the EC50 was over 10 µM and the Ki is over 10 µM.
For `COc1cc(CO)cc(S(=O)(=O)N2CCc3cccc(CCc4ccc(C(=O)O)cc4)c32)c1`, the EC50 was over 10 µM.
For `COc1cccc(CCN2Cc3cccc(CCc4ccc(C(=O)O)cc4)c3C2)c1`, the EC50 was over 10 µM and the Ki was over 10 µM.
Turning to `COc1cccc(CC(=O)N2CCc3cccc(CCc4ccc(C(=O)O)cc4)c32)c1`, the EC50 is over 10 µM and the Ki is 0.449 µM.
On to `COc1cccc(CN2CCc3cccc(CCc4ccc(C(=O)O)s4)c32)c1`, for which the Ki came out at 0.714 µM.
For the molecule `COc1cccc(CN2Cc3cccc(CCc4ccc(C(=O)O)cc4)c3C2)c1`, the EC50 was over 10 µM and the Ki is 9.56 µM.
As for `O=C(O)c1ccc(CCc2cccc3c2N(Cc2cccc(C(F)(F)F)c2)CC3)cc1`, the EC50 is 0.187 µM and the Ki came out at 0.424 µM.
With `COc1cccc(CN2CCc3cccc(CCc4ccc(C(=O)O)cc4)c32)c1`, the EC50 was determined as 0.178 µM and the Ki is 0.123 µM.
The corresponding values for `O=C(O)c1ccc(CCc2cccc3c2N(Cc2cccc(F)c2)CC3)cc1` are 0.123 µM and 0.897 µM.
Consider `O=C(O)c1ccc(CCc2cccc3c2N(Cc2ccc(F)cc2)CC3)cc1`, for which the EC50 stood at 0.45 µM and the Ki is 0.616 µM.
Take `O=C(O)c1ccc(CCc2cccc3c2N(Cc2cc(C(F)(F)F)cc(C(F)(F)F)c2)CC3)cc1`: the Ki worked out at 1.2 µM.
On the same count and under the same terms, the figure for `COc1cc(OC)cc(N2Cc3cccc(CCc4ccc(C(=O)O)cc4)c3C2)c1` is 3.91 µM.

For a further test, the target named is Prostaglandin E2 receptor EP2 subtype (Homo sapiens, UniProt P43116). Described as §1.
Sequence of Prostaglandin E2 receptor EP2 subtype (P43116 whole entry): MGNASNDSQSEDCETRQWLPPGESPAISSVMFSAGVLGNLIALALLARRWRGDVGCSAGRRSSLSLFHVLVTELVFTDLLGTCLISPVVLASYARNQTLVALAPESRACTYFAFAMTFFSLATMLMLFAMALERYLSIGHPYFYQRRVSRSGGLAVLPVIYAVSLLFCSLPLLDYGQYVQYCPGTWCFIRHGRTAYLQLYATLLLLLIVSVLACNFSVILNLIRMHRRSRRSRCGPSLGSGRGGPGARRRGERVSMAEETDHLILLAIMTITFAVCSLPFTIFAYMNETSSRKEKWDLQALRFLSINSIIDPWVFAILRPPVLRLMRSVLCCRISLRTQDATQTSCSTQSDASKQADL
Turning to `COc1cc(CN2CCc3cc(F)cc(CCc4ccc(C(=O)O)cc4)c32)cc(OC)c1`, the Ki came to 0.014 µM.
For the molecule `COc1cccc(Cn2ccc3cccc(CCc4ccc(C(=O)O)cc4)c32)c1`, the Ki turned out to be 0.259 µM.
Consider `COc1cccc(CCN2CCc3cccc(CCc4ccc(C(=O)O)cc4)c32)c1`, for which the inhibition constant (Ki) came to 0.041 µM.
As for `O=C(O)c1ccc(CCc2cccc3c2N(CCc2ccccc2)CC3)cc1`, the Ki was found to be 0.202 µM.
As to `COc1cc(OC)cc(C(=O)N2CCc3cccc(CCc4ccc(C(=O)O)cc4)c32)c1`, the EC50 amounted to 0.183 µM and the Ki came to 0.821 µM.
Consider `O=C(O)c1ccc(CCc2cccc3c2N(Cc2cc(F)cc(F)c2)CC3)cc1`, for which the EC50 stood at 0.012 µM and the Ki turned out to be 0.012 µM.
As to `COc1cccc(S(=O)(=O)N2CCc3cccc(CCc4ccc(C(=O)O)cc4)c32)c1`, the Ki was 0.571 µM.
Regarding `COc1cccc(CCN2Cc3cccc(CCc4ccc(C(=O)O)cc4)c3C2)c1`, the Ki is 1.13 µM.
For the molecule `COc1cccc(CC(=O)N2CCc3cccc(CCc4ccc(C(=O)O)cc4)c32)c1`, the Ki was over 10 µM.
Regarding `COc1cccc(CN2CCc3cccc(CCc4ccc(C(=O)O)s4)c32)c1`, the Ki came out at 0.05 µM.
Turning to `COc1cccc(CN2Cc3cccc(CCc4ccc(C(=O)O)cc4)c3C2)c1`, the Ki is 6.88 µM.
Regarding `O=C(O)c1ccc(CCc2cccc3c2N(Cc2cccc(C(F)(F)F)c2)CC3)cc1`, the EC50 was determined as 0.015 µM and the Ki was 0.007 µM.
Take `COc1cccc(CN2CCc3cccc(CCc4ccc(C(=O)O)cc4)c32)c1`: the Ki worked out at 0.023 µM.
With `O=C(O)c1ccc(CCc2cccc3c2N(Cc2cccc(F)c2)CC3)cc1`, the EC50 is 0.035 µM and the Ki was determined as 0.038 µM.
With `O=C(O)c1ccc(CCc2cccc3c2N(Cc2ccc(F)cc2)CC3)cc1`, the EC50 worked out at 0.029 µM and the Ki is 0.014 µM.
The corresponding values for `O=C(O)c1ccc(CCc2cccc3c2N(Cc2cc(C(F)(F)F)cc(C(F)(F)F)c2)CC3)cc1` are 0.011 µM and 0.0003 µM.
